According to patent US8835509B2, “Self emulsifying drug delivery system for a curcuminoid based composition” (Arbro Pharmaceuticals Ltd., priority 2010, dated 2014):
≈ marks a conversion by molar mass, not a printed value. Where two headings read alike, the source gives them in different places.

Experiments:
[1] = rats, oral administration of 400 mg of curcumins, cited from earlier work
[2] = rat intestine in vitro, cited from earlier work
[3] = Solubility test of curcumin in oils, surfactants, milk, BSA and casein; format: physicochemical; settings: thermodynamic from solid
Experimental: The solubility of curcumin in a number of oils such as citronella oil, castor oil, ethyl oleate, and palm rose oil, coconut oil, CAPRYOL™ 90 and a number of surfactants such as TWEEN® 80, CREMOPHOR® EL, PEG 200 and TRANSCUTOL® HP were determined in order to find out the appropriate oils and surfactants as compositions of SNEDDS. Solubility was also determined in milk, BSA and casein.
An excess amount of curcumin was added to 5 ml of oil or surfactant solutions. The resultant mixture was shaken reciprocally at 37° C. for 72 h, followed by centrifugation at 12000 rpm for 10 min. The supernatant was filtered through a membrane filter (0.45 μm) to remove the remaining insoluble curcumin. After the appropriate dilution with methanol, the drug concentration in the filtrate was quantified by HPLC.

solubility at 72 h ([3]; 37 °C, plasma or biological fluid, in Casein, read-out: Solubility of Curcumin in milk, BSA and Casein): 14 µg/mL (≈ 0.038 mM)
solubility at 72 h ([3]; 37 °C, plasma or biological fluid, in Milk, read-out: Solubility of Curcumin in milk, BSA and Casein): 23800 µg/mL (≈ 64.5 mM)
solubility at 72 h ([3]; Almond oil, oil or lipid, in Almond, 37° C., 72 h, read-out: Solubility of Curcumin in oils, Sol): 1250 µg/mL (≈ 3.39 mM)
solubility at 72 h ([3]; Castor oil, oil or lipid, in Castor, 37° C., 72 h, read-out: Solubility of Curcumin in oils, Sol): 4420 µg/mL (≈ 12 mM)
solubility at 72 h ([3]; Citronella oil, oil or lipid, in Citronella, 37° C., 72 h, read-out: Solubility of Curcumin in oils, Sol): 13200 µg/mL (≈ 35.8 mM)
solubility at 72 h ([3]; Lavender oil, oil or lipid, in Lavender, 37° C., 72 h, read-out: Solubility of Curcumin in oils, Sol): 3440 µg/mL (≈ 9.35 mM)
solubility at 72 h ([3]; Palm Rose oil, oil or lipid, in Palm Rose, 37° C., 72 h, read-out: Solubility of Curcumin in oils, Sol): 6030 µg/mL (≈ 16.4 mM)
solubility at 72 h ([3]; aqueous with cosolvent or surfactant or cyclodextrin, in TWEEN® 60 (100% conc), 37° C., 72 h, read-out: Solubility of Curcumin in surfactants, Sol): 34 µg/mL (≈ 0.0923 mM)
solubility at 72 h ([3]; aqueous with cosolvent or surfactant or cyclodextrin, in TWEEN® 80 (100% conc), 37° C., 72 h, read-out: Solubility of Curcumin in surfactants, Sol): 484 µg/mL (≈ 1.31 mM)
solubility at 72 h ([3]; bovine, 37 °C, plasma or biological fluid, in BSA, read-out: Solubility of Curcumin in milk, BSA and Casein): 24 µg/mL (≈ 0.0651 mM)
solubility at 72 h ([3]; coconut oil, oil or lipid, in Cocconut Oil, 37° C., 72 h, read-out: Solubility of Curcumin in oils, Sol): 1680 µg/mL (≈ 4.57 mM)
solubility at 72 h ([3]; oil or lipid, in Arachis Oil, 37° C., 72 h, read-out: Solubility of Curcumin in oils, Sol): 160 µg/mL (≈ 0.434 mM)
solubility at 72 h ([3]; oil or lipid, in CAPRYOL™ 90, 37° C., 72 h, read-out: Solubility of Curcumin in oils, Sol): 7580 µg/mL (≈ 20.6 mM)
solubility at 72 h ([3]; oil or lipid, in Emu oil, 37° C., 72 h, read-out: Solubility of Curcumin in oils, Sol): 1580 µg/mL (≈ 4.3 mM)
solubility at 72 h ([3]; oil or lipid, in Ethyl Oleate, 37° C., 72 h, read-out: Solubility of Curcumin in oils, Sol): 589 µg/mL (≈ 1.6 mM)
solubility at 72 h ([3]; oil or lipid, in Glyc Mono ol, 37° C., 72 h, read-out: Solubility of Curcumin in oils, Sol): 154 µg/mL (≈ 0.418 mM)
solubility at 72 h ([3]; oil or lipid, in IPM, 37° C., 72 h, read-out: Solubility of Curcumin in oils, Sol): 1130 µg/mL (≈ 3.06 mM)
solubility at 72 h ([3]; oil or lipid, in Labrafilm F 1944, 37° C., 72 h, read-out: Solubility of Curcumin in oils, Sol): 2560 µg/mL (≈ 6.95 mM)
solubility at 72 h ([3]; oil or lipid, in Labrafilm F2125, 37° C., 72 h, read-out: Solubility of Curcumin in oils, Sol): 3590 µg/mL (≈ 9.75 mM)
solubility at 72 h ([3]; oil or lipid, in Lauroglycol, 37° C., 72 h, read-out: Solubility of Curcumin in oils, Sol): 2610 µg/mL (≈ 7.09 mM)
solubility at 72 h ([3]; oil or lipid, in Light Paraffin, 37° C., 72 h, read-out: Solubility of Curcumin in oils, Sol): 7 µg/mL (≈ 0.019 mM)
solubility at 72 h ([3]; oil or lipid, in Linseed Oil, 37° C., 72 h, read-out: Solubility of Curcumin in oils, Sol): 277 µg/mL (≈ 0.752 mM)
solubility at 72 h ([3]; olive oil, oil or lipid, in Oilve, 37° C., 72 h, read-out: Solubility of Curcumin in oils, Sol): 501 µg/mL (≈ 1.36 mM)
solubility at 72 h ([3]; organic solvent or mixture, in CREMOPHOR® EL (100% conc), 37° C., 72 h, read-out: Solubility of Curcumin in surfactants, Sol): 36600 µg/mL (≈ 99.4 mM)
solubility at 72 h ([3]; organic solvent or mixture, in CREMOPHOR® RH (100% conc), 37° C., 72 h, read-out: Solubility of Curcumin in surfactants, Sol): 38700 µg/mL (≈ 105 mM)
solubility at 72 h ([3]; organic solvent or mixture, in LABRASOL® (100% conc), 37° C., 72 h, read-out: Solubility of Curcumin in surfactants, Sol): 846 µg/mL (≈ 2.3 mM)
solubility at 72 h ([3]; organic solvent or mixture, in PEG 200 (100% conc), 37° C., 72 h, read-out: Solubility of Curcumin in surfactants, Sol): 1040 µg/mL (≈ 2.84 mM)
solubility at 72 h ([3]; organic solvent or mixture, in PEG 400 (100% conc), 37° C., 72 h, read-out: Solubility of Curcumin in surfactants, Sol): 512 µg/mL (≈ 1.39 mM)
solubility at 72 h ([3]; organic solvent or mixture, in PEG 600 (100% conc), 37° C., 72 h, read-out: Solubility of Curcumin in surfactants, Sol): 123 µg/mL (≈ 0.334 mM)
solubility at 72 h ([3]; organic solvent or mixture, in TRANSCUTOL® HP (100% conc), 37° C., 72 h, read-out: Solubility of Curcumin in surfactants, Sol): 96400 µg/mL (≈ 262 mM)
Structure (SMILES): COc1cc(/C=C/C(=O)/C=C(O)/C=C/c2ccc(O)c(OC)c2)ccc1O [Curcumin, curcumin]
curcumin in portal blood ([1]; 15 minute to 24 hour after administration): trace amount
curcumin in heart blood [1]: no curcumin was found
absorption of curcumin ([2]; present as micelles): 56%
absorption of curcumin ([2]; present in a free form): 47%
